Test: Buccal delivery of resveratrol in humans: free resveratrol in plasma
Assay type: in vivo
Conditions: human, 1 mg resveratrol in 50 mL solution retained in the mouth for one minute before swallowing, plasma two minutes later, read-out: free resveratrol measured in plasma
Experimental: One efficient way of administering resveratrol in humans may be buccal delivery, that is without immediate swallowing, by direct absorption through the inside of the mouth. As an example, when one mg of resveratrol in 50 mL solution was retained in the mouth for one minute before swallowing, 37 ng/ml of free resveratrol was measured in plasma two minutes later. This level of unchanged resveratrol in blood can only be achieved with 250 mg of resveratrol taken in pill form.

concentration at 2 min: 37 ng/mL
Compound: Oc1ccc(C=Cc2cc(O)cc(O)c2)cc1 [resveratrol]

Reference: patent publication US20110123651A1, “DIETARY SUPPLEMENT DRINK FOR DELIVERY OF RESVERATROL AND OTHER POLYPHENOLS” (priority 2009, published 2011)
